This note sets out measurements from patent US6528535B2, “Bicyclic inhibitors of protein farnesyl transferase” (Warner-Lambert Company, priority 1997, dated 2003).

Where a name gives a salt, the structure may show the parent alone. Read-outs that look alike come from different tables or passages of the source.

For series [1], the target named is T1, SF9 affinity purified rat FPT (Rattus norvegicus, UniProt Q02293+Q04631).
T1 construct: made in house; host or cells: Sf9 insect cells
The series can be described thus: PFT (farnesyl protein transferase) inhibitory activity, radiolabeled farnesyl pyrophosphate / biotinyl peptide bead assay. In kind it is biochemical. The settings on record: read-out: FTase, IC50. How it is done: The protein:farnesyl transferase (PFT) or farnesyl protein transferase (FPT) inhibitory activity of compounds of the present invention were assayed in HEPES buffer (pH 7.4) containing 5 mM potassium phosphate and 20 μM ZnCl2. The solution also contained 5 mM DTT (dithiothreitol), 5 mM MgCl2, and 0.1% PEG 8000. Assays were performed in 96 well plates (Wallec) and employed solutions composed of varying concentrations of a compound of the present invention in 10% DMSO (dimethylsulfoxide). Upon addition of both substrates, radiolabeled farnesyl pyrophosphate ([1^3H], specific activity 15-30 Ci/mmol, final concentration 134 nM) and (biotinyl)-Ahe-Thr-Lys-Cys-Val-Ile-Met ([3aS[3a alpha, 4 beta, 6a alpha]-hexahydro-2-oxo-1H-thieno[3,4-d]imidazole-5-pentanoic acid]-[7-aminoheptanoic acid]-Thr-Lys-Cys-Val-Ile-Met) (Ahe is 7-aminoheptanoic acid, Thr is threonine, Lys is lysine, Cys is cysteine, Val is valine, Ile is isoleucine, and Met is methionine) (final concentration 0.2 μM), the enzyme reaction was started by addition of SF9 affinity purified rat FPT. After incubation at 30° C. for 30 minutes, the reaction was terminated by diluting the reaction 2.5-fold with a stop buffer containing 1.5 M magnesium acetate, 0.2 M H3PO4, 0.5% BSA (bovine serum albumin), and strepavidin beads (Amersham) at a concentration of 1.3 mg/mL. After allowing the plate to settle for 30 minutes at room temperature, radioactivity was quantitated on a microbeta counter (Model 1450, Wallec). The assay was also carried out without 5 mM potassium phosphate.

Setting [2] is: average of two tests unless n is given in parentheses.

As a reminder, the melting point is the temperature of the solid-liquid transition. As usually defined, the IC50 is the concentration that gives 50% inhibition.

For the compound `O=C1C(=Cc2ccc([N+](=O)[O-])s2)CCc2cc(OCCn3ccnc3)ccc21` [Example 22, 6-(2-Imidazole-1-yl-ethoxy)-2-(5-nitro-thiophen-2-ylmethylene)-3,4-dihydro-2H-naphthalen-1-one], the melting point is more than 240 °C. For the same compound, the IC50 in series [1] (setting [2]) turned out to be 370 nM. `CC1(C)CC(=O)c2ccc(OCCn3ccnc3)cc2O1` [Example 83, 7-[2-(1H-Imidazolyl)ethoxy]-2,2-dimethyl-4-chromanone] came in with a melting point of 84 to 86 °C. In addition, the IC50 in series [1] (setting [2]) worked out at 900 nM. For the compound `O=C1C(=Cc2ccoc2)CCc2cc(OCCn3ccnc3)ccc21` [Example 23, 2-Furan-3-ylmethylene-6-(2-imidazole-1-yl-ethoxy)-3,4-dihydro-2H-naphthalen-1-one], the melting point lay in the range of 116 to 117 °C. Also, the IC50 in series [1] (setting [2]) is 1600 nM. The like results for `Cc1ccsc1C=C1CCc2cc(OCCc3c[nH]cn3)ccc2C1=O` [Example 39, 6-[2-(1H-Imidazole-4-yl)-ethoxy]-2-(3-methyl-thiophen-2-ylmethylene)-3,4-dihydro-2H-naphthalen-1-one] were, in that order, 191 to 193 °C and 3100 nM. Regarding `CC(=C1CCc2cc(OCCc3c[nH]cn3)ccc2C1=O)c1ccccc1` (as salt: HCl) [Example 40, 6-[2-(1H-Imidazole-4-yl)-ethoxy]-2-(1-phenyl-ethylidene)-3,4-dihydro-2H-naphthalen-1-one], the melting point lay in the range of 170 to 172 °C. `CSc1ccc(C=C2CCc3cc(OCCn4ccnc4)ccc3C2=O)cc1` [Example 4] gave a melting point of 161 to 161.5 °C. In series [1] (setting [2]), the 50% inhibitory concentration (IC50) was found to be 78 nM. For the compound `CSc1ccc(CC2CCc3cc(OCCn4ccnc4)ccc3C2=O)cc1` (stereo not drawn) [Example 10, 6-(2-Imidazole-1yl-ethoxy)-2-(4-methylsulfanyl-benzyl)-3,4-dihydro-2H-naphthalen-1-one], the melting point was in the range of 114 to 117 °C. Besides, the half-inhibitory concentration (IC50) in series [1] (setting [2]) was determined as 370 nM.

As for `Cc1cc2c(cc1OCCn1ccnc1)CC/C(=C\c1cccs1)C2=O` [Example 46, 6-[2-(1H-1-Imidazolyl)ethoxy]-7-methyl-2-[(E)-1-(2-thienyl)methylidene]-1,2,3,4-tetrahydro-1-naphthalenone], the melting point lay in the range of 150 to 151 °C. Also, in series [1] (setting [2]), the IC50 turned out to be 15400 nM. With `O=C1C(=Cc2ccc([N+](=O)[O-])cc2)CCc2cc(OCCn3ccnc3)ccc21` [Example 7, 6-(2-Imidazole-1-yl-ethoxy)-2-(4-nitro-benzylidene)-3,4-dihydro-2H-naphthalen-1-one], the melting point is 184 to 185 °C. The IC50 in series [1] (setting [2]) is 1700 nM.

`O=C1/C(=C/C=C/c2ccccc2)CCc2cc(OCCn3ccnc3)ccc21` [Example 44, (E,E)-6-(2-Imidazol-1-yl-ethoxy)-2-(3-phenyl-allylidene)-3,4-dihydro-2H-naphthalen-1-one] had a melting point of 198 to 200 °C. The IC50 in series [1] (setting [2]) was determined as 3600 nM. Take `O=C1/C(=C/c2cccs2)CNc2cc(OCCn3ccnc3)ccc21` [Example 49, 7-[2-(1H-1-Imidazolyl)ethoxy]-3-[(E)-1-(2-thienyl)methylidene]-1,2,3,4-tetrahydro-4-quinolinone]: the melting point was 211 to 213 °C. Compound `O=C1c2ccc(OCCn3ccnc3)cc2CCC1Cc1ccc(Br)cc1` (stereo not drawn) [Example 13, 2-(4-Bromo-benzyl)-6-(2-imidazole-1-yl-ethoxy)-3,4-dihydro-2H-naphthalen-1-one] registered a melting point of 129 to 130.5 °C. Also, the IC50 in series [1] (setting [2]) turned out to be 290 nM. As to `O=C1C(=Cc2ccco2)CCc2cc(OCCc3c[nH]cn3)ccc21` [Example 41, 2-Furan-2-ylmethylene-6-[2-(1H-imidazole-4-yl)-ethoxy]-3,4-dihydro-2H-naphthalen-1-one], the melting point lay within 57 to 60 °C. For the same compound, the IC50 in series [1] (setting [2]) was 190 nM. The like results for `CSc1ccc(C=C2CCc3cc(OCCn4ccnc4)ccc3C2=O)s1` [Example 19, 6-(2-Imidazole-1-yl-ethoxy)-2-(5-methylsulfanyl-thiophen-2-ylmethylene)-3,4-dihydro-2H-naphthalen-1-one] were, in that order, 102 to 104 °C and 700 nM. Regarding `Cc1c(OCCn2ccnc2)ccc2c1CC/C(=C\c1cccs1)C2=O` [Example 48, 6-[2-(1H-1-Imidazolyl)ethoxy]-5-methyl-2-[(E)-1-(2-thienyl)methylidene]-1,2,3,4-tetrahydro-1-naphthalenone], the melting point fell in the range of 182 to 184 °C. In addition, the half-inhibitory concentration (IC50) in series [1] (setting [2]) came to 400 nM. In the same order, the values of `CSc1ccc(C=C2CCc3cc(OCCc4c[nH]cn4)ccc3C2=O)s1.Cl` [Example 32, 6-[2-(1H-Imidazole-4-yl)-ethoxy]-2-(5-methylsulfanyl-thiophen-2-ylmethylene)-3,4-dihydro-2H-naphthalen-1-one, monohydrochloride] are 168 to 169 °C and 9100 nM. The like results for `O=C1C(=Cc2ccncc2)CCc2cc(OCCn3ccnc3)ccc21` [Example 6, 6-(2-Imidazole-1-yl-ethoxy)-2-pyridin-4-ylmethylene-3,4-dihydro-2H-naphthalen-1-one] were, in that order, 128.5 to 129 °C and 1260 nM. In the same order, the values of `O=C1C(=Cc2ccc(Cl)s2)CCc2cc(OCCn3ccnc3)ccc21` [Example 18, 2-(5-Chloro-thiophen-2-ylmethylene)-6-(2-imidazole-1-yl-ethoxy)-3,4-dihydro-2H-naphthalen-1-one] are 143 to 144 °C and 320 nM. For the compound `CSc1ccc(C=C2CCc3cc(OCCc4c[nH]cn4)ccc3C2=O)cc1` [Example 31, 6-[2-(1H-Imidazole-4-yl)-ethoxy]-2-(4-methylsulfanyl-benzylidene)-3,4-dihydro-2H-naphthalen-1-one], the melting point lay within 65 to 70 °C. For the same compound, the concentration for half-maximal inhibition (IC50) in series [1] (setting [2]) was determined as 590 nM. In the case of `O=C1C(=Cc2ccc(Br)cc2)CCc2cc(OCCn3ccnc3)ccc21` [Example 5, 2-(4-Bromo-benzylidene)-6-(2-imidazole-1-yl-ethoxy)-3,4-dihydro-2H-naphthalen-1-one], the melting point was 152 to 153 °C. Further, the IC50 in series [1] (setting [2]) turned out to be 1370 nM. The like results for `O=C1CCOc2cc(OCCn3ccnc3)ccc21` [Example 51, 7-[2-(1H-1-Imidazolyl)ethoxy]-4-chromanone] were, in that order, 128 to 130 °C and 4400 nM.

For the compound `COc1ccc(C=C2CCc3cc(OCCn4ccnc4)ccc3C2=O)cc1` [Example 24, 6-(2-Imidazole-1-yl-ethoxy)-2-(4-methoxy-benzylidene)-3,4-dihydro-2H-naphthalen-1-one], the melting point lay within 132 to 133 °C. The IC50 in series [1] (setting [2]) turned out to be 880 nM. The like results for `O=c1ccoc2cc(OCCn3ccnc3)ccc12` [Example 50, 7-[2-(1H-1-Imidazolyl)ethoxy]-4H-4-chromenone] were, in that order, 131 to 133 °C and 2600 nM. In the same order, the values of `O=C1C(=Cc2sccc2Oc2ccccc2)CCc2cc(OCCn3ccnc3)ccc21` [Example 20, 6-(2-Imidazole-1-yl-ethoxy)-2-(3-phenoxy-thiophen-2-ylmethylene)-3,4-dihydro-2H-naphthalen-1-one] are 135 to 137 °C and 3100 nM. In the same order, the values of `O=c1cc(-c2ccccc2)oc2cc(OCCn3ccnc3)ccc12` [Example 77, 7-[2-(1H-1-Imidazolyl)ethoxy]-2-phenyl-4H-4-chromenone] are 155 to 159 °C and 9300 nM.

As to `Cc1c(OCCn2ccnc2)ccc2c1CCCC2=O` [Example 47, 6-[2-(1H-1-Imidazolyl)ethoxy]-5-methyl-1,2,3,4-tetrahydro-1-naphthalenone], the melting point is 110 to 112 °C. Also, the IC50 in series [1] (setting [2]) was determined as 1300 nM.

Regarding `CC(=C1CCc2cc(OCCc3c[nH]cn3)ccc2C1=O)c1ccccc1` [Example 40, 6-[2-(1H-Imidazole-4-yl)-ethoxy]-2-(1-phenyl-ethylidene)-3,4-dihydro-2H-naphthalen-1-one], the concentration for half-maximal inhibition (IC50) in series [1] (setting [2]) stood at 4700 nM. Still for that read-out and setting: the value for `COc1ccccc1C=C1CCc2cc(OCCn3ccnc3)ccc2C1=O` [Example 25, 6-(2-Imidazol-1-yl-ethoxy)-2-(2-methoxy-benzylidene)-3,4-dihydro-2H-naphthalen-1-one] was 2500 nM. For the compound `O=C1/C(=C/c2ccc(F)cc2)CCc2cc(OCCn3ccnc3)ccc21` [Example 60, 2-[(E)-1-(4-Fluorophenyl)methylidene]-6-[2-(1H-1-imidazolyl)ethoxy]-1,2,3,4-tetrahydro-1-naphthalenone], the IC50 in series [1] (Examples 56-74, parallel synthesis array: single test, values adjusted to account for the purity of the sample) is 180 nM. Take `O=C(CON=C1CCCc2cc(OCCn3ccnc3)ccc21)NCC1(c2ccccc2)CCC1` [Example 82, 2-[6-(2-Imidazol-1-yl-ethoxy)-3,4-dihydro-2H-naphthalen-1-ylideneaminooxy]-N-(1-phenyl-cyclobutylmethyl)-acetamide]: in series [1] (setting [2]), the IC50 was determined as 420 nM.
